Measurements reported in patent US20050250837A1, “Use of C-Raf inhibitors for the treatment of neurodegenerative diseases” (priority 2002, published 2005).

How the values were obtained:
B-Raf = assay: Activity of B-Raf immunoprecipitated from neuronal lysates, MEK substrate; assay type: cell-based, rat; settings: LK + 1 uM GW5074, 1 hour
Procedure: The reaction mixture was subjected to Western analysis using a phospho-MEK antibody as probe.
Activities of endogenous C-Raf and B-Raf activity was assayed by measuring the ability of kinase immunoprecipitated from neuronal lysates to phosphorylate a kinase-dead recombinant GST-MEK1 substrate. Following immunoprecipitation and multiple washes with lysis buffer, lysis buffer supplemented with 350 mM NaCl, and kinase buffer (25 mM HEPES pH 7.4 and 10 mM MgCl2), in vitro kinase assays are performed on the immune complexes using purified recombinant GST-MEK1 K97M protein as a substrate in kinase buffer supplemented with 85 μM ATP for 35 minutes at 30° C. Reactions are stopped by the addition of 3×SDS sample buffer and boiled for five minutes. Proteins are resolved by SDS-PAGE and subjected to Western blotting. The level of phosphorylated MEK is detected by a phospho-MEK antibody.

Akt = Akt phosphorylation (Ser473) in neuronal cultures, Western blot; assay type: cell-based, rat
Procedure: The best-studied anti-apoptotic pathway in neurons is the PI-3 kinase—Akt signaling pathway (D'Mello et al., 1997; Dudek et al., 1997; Miller et al, 1997a). IGF-1, a potent survival-promotic factor for granule neurons mediates its effect by activating the PI-3 kinase-Akt pathway (Datta et al., 1997; Dudek et al., 1997; D'Mello et al., 1998). […] Switching cerebellar granule neurons from serum-containing HK medium in which they are cultured and allowed to mature, to serum-free LK or HK medium, causes a rapid downregulation of Akt phosphorylation and activity, which can be prevented by IGF-1 (Kumari et al., 2001). […] The same blot was reprobed with an antibody against phospho-Gskβ. Also loaded on the gel were lysates from untreated cultures (maintained in medium containing serum and high K+) and a culture treated for 1 hour with 25 ng/ml IGF-1. […] GSK3βis a proapoptotic molecule that is activated during apoptosis in many neuronal and normeuronal systems. Under survival promoting conditions GSK3β is kept inactivated by phosphorylation, a modification that can be induced by Akt. […] Another proapoptotic molecule that is phosphorylated and inactivated by Akt is the transcription factor, Forkhead (Linseman et al., 2002). […] Switching of neurons to LK medium leads to a rapid downregulation of Akt activity within 2 hours.
(§1) For whole-cell lysates, the culture medium was discarded, the neurons washed twice with ice-cold phosphate-buffered saline (PBS), and lysed in lysis buffer (1% Triton, 20 mM Tris-HCl (pH 7.5), 150 mM NaCl, 1 mM Na2EDTA, 1 mM EGTA, 2.5 mM sodium pyrophosphate, 1 mM beta-glycerophosphate, 1 mM Na3VO4, 1 μg/ml leupeptin and 1× protease inhibitor mixture). Protein concentrations were measured using a Bradford protein assay kit (Bio-Rad), and equivalent amounts of protein were mixed with 6×SDS-PAGE sample buffer. […] After staining with Ponceau S to verify uniformity of protein loads/transfer, the membranes were analyzed for immunoreactivity. […]

CDK1/cyclinB = CDK1/cyclinB (Homo sapiens, UniProt P06493); assay: In vitro kinase assay, purified kinase (Upstate Kinase Profiling); assay type: biochemical; also: ATP 10 µM
Text: (§2) (Lackey et al., 2000). […] A number of reports have implicated JNKs in the promotion of neuronal apoptosis both in vivo and in cell culture systems (Coffey et al., 2002). Although all three JNK proteins are expressed in neurons, the phosphorylation of c-jun is believed to be mediated by JNK2 or JNK3 (Bruckner et al., 2001; Bruckner and Estus, 2002; Coffey et al., 2002). […] In apoptotic neurons, JNK activation is mediated primarily by MKK7 (Eilers et al., 1998; Trotter et al., 2002).
(§3) In general, in vitro kinase assays were performed using purified kinase and synthetic substrates under standard conditions using the Kinase Profiling service of Upstate Biotechnology. Briefly, for each assay 5-10 mU of purified kinase was used. […] Kinase activity was quantified by measuring ^33P incorporation by spotting an aliquot on P30 filters, washing in 50 mM phosphoric acid and scintillation counting. The buffer composition for C-Raf, JNK1, JNK2, JNK3, MEK1, MKK6, MKK7 was 50 mM Tris pH7.5, 0.1 mM EGTA, 10 mM Mg acetate and [γ-^33P-ATP]. The peptide substrates used were as follows: For C-Raf, 0.66 mg/ml MBP; for cdks, 0.1 mg/ml histone H1; for JNKs, 3 uM ATF2; for MEK1, 1 uM MAPK2; for MKK6, 1 uM of SAPK2a and for MKK7, 2 uM JNK1α.

JNK2 = JNK2 (Homo sapiens, UniProt P45984); assay: as above; assay type: biochemical; also: ATP 10 µM
Text: as §2, §3

JNK3 = assay: as above; assay type: biochemical; settings: 1 uM GW5074, ATP 10 uM; percentage of control without GW5074, mean +/- SD
Text: as §2, §3

CDK2/cyclinA = CDK2/cyclinA (Homo sapiens, UniProt P24941); assay: as above; assay type: biochemical; also: ATP 10 µM
Text: as §2, §3

CDK5/p35 = CDK5/p35 (Homo sapiens, UniProt Q00535); assay: as above; assay type: biochemical; also: ATP 10 µM
Text: as §2, §3

JNK1 = JNK1 (Homo sapiens, UniProt P45983); assay: as above; assay type: biochemical; also: ATP 10 µM
Text: as §2, §3

CDK6/cyclinD3 = CDK6/cyclinD3 (Homo sapiens, UniProt Q00534); assay: as above; assay type: biochemical; also: ATP 10 µM
Text: as §2, §3

ERK 1/2 = ERK 1/2 phosphorylation in neuronal cultures, Western blot; assay type: cell-based, rat; settings: LK plus GW5074, 1 or 3 hours
Text: Activation of all three Raf proteins results in activation of MEK and ERK.
Survival of cerebellar granule neurons can be maintained by BDNF and this effect of BDNF is mediated by the Raf-MEK-ERK signaling pathway (Bonni et al., 1999). The Raf-MEK-ERK pathway is also involved in promoting survival of other neuronal and normeuronal cell types. A potent blocker of the Raf-MEK-ERK pathway is PD98059 (Alessi et al., 1995). In paradigms in which the Raf-MEK-ERK pathway mediates neuronal survival, such as BDNF-treated cerebellar granule neurons, the presence of […] blocks survival (Bonni et al., 1999). […] Lysates from the cultures were subjected to Western blotting using an antibody specific for phospho-ERK.
as §1

Chain of JNK1 (P45983 whole entry, species assumed): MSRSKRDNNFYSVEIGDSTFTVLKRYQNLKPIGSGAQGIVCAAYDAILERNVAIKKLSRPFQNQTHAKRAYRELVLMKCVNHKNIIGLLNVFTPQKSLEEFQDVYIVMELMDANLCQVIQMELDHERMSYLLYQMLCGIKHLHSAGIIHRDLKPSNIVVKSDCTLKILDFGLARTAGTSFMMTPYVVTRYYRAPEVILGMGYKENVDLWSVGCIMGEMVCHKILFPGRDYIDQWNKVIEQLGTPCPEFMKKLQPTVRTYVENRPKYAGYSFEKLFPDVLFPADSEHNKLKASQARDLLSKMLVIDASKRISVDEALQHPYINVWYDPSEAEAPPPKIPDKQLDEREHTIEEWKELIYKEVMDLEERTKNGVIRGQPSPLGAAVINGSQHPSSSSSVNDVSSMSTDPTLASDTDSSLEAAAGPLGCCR
Chain of JNK2 (P45984 whole entry, species assumed): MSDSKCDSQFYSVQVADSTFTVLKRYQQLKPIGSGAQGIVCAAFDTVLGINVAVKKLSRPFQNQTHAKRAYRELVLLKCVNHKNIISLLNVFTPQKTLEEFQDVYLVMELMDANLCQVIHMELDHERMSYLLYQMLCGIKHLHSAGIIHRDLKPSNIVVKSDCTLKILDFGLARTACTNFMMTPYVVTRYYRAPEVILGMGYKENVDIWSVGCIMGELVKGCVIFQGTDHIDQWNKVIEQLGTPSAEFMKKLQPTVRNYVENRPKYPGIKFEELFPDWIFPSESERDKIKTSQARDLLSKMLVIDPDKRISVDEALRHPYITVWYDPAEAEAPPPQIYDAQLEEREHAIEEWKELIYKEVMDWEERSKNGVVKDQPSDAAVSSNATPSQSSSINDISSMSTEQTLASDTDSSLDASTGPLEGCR
Chain of CDK6/cyclinD3 (Q00534 whole entry, species assumed): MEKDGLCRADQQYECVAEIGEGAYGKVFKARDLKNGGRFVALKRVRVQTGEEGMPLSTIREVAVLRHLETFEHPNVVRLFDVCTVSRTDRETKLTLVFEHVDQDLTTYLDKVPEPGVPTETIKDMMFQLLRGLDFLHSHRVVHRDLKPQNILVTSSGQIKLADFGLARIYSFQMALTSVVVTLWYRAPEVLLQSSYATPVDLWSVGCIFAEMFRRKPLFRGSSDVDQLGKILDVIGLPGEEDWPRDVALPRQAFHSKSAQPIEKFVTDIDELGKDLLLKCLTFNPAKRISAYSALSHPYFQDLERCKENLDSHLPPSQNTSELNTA
Chain of CDK6/cyclinD3 (P30281 whole entry partner, species assumed): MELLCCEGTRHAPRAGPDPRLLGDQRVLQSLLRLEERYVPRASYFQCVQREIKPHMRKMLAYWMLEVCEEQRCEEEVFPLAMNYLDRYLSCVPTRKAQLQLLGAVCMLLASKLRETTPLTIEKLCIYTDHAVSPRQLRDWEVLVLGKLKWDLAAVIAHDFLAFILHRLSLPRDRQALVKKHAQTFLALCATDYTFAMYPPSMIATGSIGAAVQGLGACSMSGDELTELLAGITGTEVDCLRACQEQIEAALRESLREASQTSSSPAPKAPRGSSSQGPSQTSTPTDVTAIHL
Chain of CDK1/cyclinB (P06493 whole entry, species assumed): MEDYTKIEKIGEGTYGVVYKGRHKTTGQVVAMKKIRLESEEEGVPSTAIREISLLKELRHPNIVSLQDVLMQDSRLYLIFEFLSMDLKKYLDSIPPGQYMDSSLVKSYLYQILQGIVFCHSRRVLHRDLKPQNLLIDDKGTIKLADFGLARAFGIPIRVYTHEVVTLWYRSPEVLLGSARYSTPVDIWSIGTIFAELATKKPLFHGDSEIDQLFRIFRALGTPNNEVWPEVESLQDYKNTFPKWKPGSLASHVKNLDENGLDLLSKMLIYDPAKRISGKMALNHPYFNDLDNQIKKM
Chain of CDK1/cyclinB (P14635 whole entry partner, species assumed): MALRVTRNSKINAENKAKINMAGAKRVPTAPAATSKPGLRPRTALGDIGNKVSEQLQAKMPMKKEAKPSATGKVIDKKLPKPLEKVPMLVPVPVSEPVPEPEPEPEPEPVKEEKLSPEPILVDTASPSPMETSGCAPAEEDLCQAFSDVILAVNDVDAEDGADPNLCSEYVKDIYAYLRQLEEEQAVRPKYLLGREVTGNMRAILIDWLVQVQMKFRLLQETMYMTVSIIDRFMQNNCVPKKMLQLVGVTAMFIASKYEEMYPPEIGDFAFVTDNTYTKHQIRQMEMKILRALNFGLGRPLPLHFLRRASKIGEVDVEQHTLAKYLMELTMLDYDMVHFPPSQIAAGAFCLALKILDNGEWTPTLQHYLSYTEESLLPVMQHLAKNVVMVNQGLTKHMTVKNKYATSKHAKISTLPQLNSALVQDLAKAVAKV
Chain of CDK5/p35 (Q00535 whole entry, species assumed): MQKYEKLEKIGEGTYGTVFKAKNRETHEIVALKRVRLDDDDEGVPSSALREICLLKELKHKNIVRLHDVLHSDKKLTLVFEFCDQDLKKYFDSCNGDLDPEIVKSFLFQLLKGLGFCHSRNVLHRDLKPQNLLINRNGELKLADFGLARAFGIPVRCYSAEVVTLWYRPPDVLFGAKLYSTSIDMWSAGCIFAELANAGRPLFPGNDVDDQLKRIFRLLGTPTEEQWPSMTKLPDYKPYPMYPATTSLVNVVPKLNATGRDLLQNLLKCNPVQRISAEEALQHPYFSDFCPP
Chain of CDK5/p35 (Q15078 whole entry partner, species assumed): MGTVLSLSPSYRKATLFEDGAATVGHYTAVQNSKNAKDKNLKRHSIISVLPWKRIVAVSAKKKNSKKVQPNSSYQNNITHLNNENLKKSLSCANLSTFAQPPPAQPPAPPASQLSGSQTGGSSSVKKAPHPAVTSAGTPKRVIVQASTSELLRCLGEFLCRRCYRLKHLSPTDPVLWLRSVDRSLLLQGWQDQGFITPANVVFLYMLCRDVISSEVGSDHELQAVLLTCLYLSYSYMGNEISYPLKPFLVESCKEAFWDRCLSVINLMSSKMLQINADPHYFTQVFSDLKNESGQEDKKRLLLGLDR

## O=C1Nc2ccc(I)cc2C1=Cc1cc(Br)c(O)c(Br)c1 [GW5074, 5-Iodo-3-[(3,5-dibromo-4-hydroxyphenyl)methylene]-2-indolinone]
B-Raf
  B-Raf activity in neurons: elevated further
Akt; LK + 1 uM GW5074, 1 and 3 hours
  Akt phosphorylation after LK treatment: delays the downregulation of Akt phosphorylation
Akt; added to cultures already switched to LK
  de novo Akt activation after downregulation in LK: does not lead to Akt activation
CDK1/cyclinB
  activity at 1 µM: 90 ± 12%
JNK2
  activity at 1 µM: 91 ± 4%
JNK3
  % ACTIVITY JNK3: 89 ± 9%
CDK2/cyclinA
  activity at 1 µM: 99%
CDK5/p35
  activity at 1 µM: 94 ± 2%
JNK1
  activity at 1 µM: 94 ± 3%
CDK6/cyclinD3
  activity at 1 µM: 98 ± 1%
ERK 1/2
  phosphorylation of ERK 1/2: increase in the phosphorylation of ERK 1/2
